{
  "source": "patent US7674902B2",
  "about": "“Luminescent metal complexes for monitoring renal function” (priority 2004, dated 2010)",
  "data": [
    {"assay": "Biodistribution of radiolabelled DTPA complexes in normal rats, compared with 99mTc-DTPA positive control", "type": "in vivo", "details": "normal Sprague-Dawley rats; 111In-labelled complex", "experimental": "(§1) Commercially available DTPA kit (Draximage Co., Ontario, Canada) was labeled with ^99mTc by the standard procedure described in the package insert that was supplied with the kit, and was administered to Sprague-Dawley rats (3 rats for each time point of 15 minutes, 60 minutes, 120 minutes, and 24 hours).\n(§2) A mixture of the stock solution of DTPA-mono(7-amino-4-methylcoumarin)amide ligand (1 mg/mL in 0.5M sodium acetate buffer, 100 μL), obtained from Gunma University, Japan (Ozaki, et. al. Reference 30), sodium acetate solution (0.5M, 100 μL), and commercially available ^111InCl3 solution (0.1M HCl, 100-200 μCi/100 μL) was adjusted to pH 4.5 and incubated at ambient temperature for 30 minutes. The resulting indium complex was purified by reverse phase HPLC and administered to Sprague-Dawley rats. The biodistribution was carried out in the same manner as that of ^99mTc-DTPA in Example 1 (FIG. 8).", "values": [
      {"substance": "^111In-HMDTPA-1-naphthylurethane complex [Example 5]", "hepatobiliary clearance (relative to reference complex)": "much higher hepatobiliary clearance"}
    ]},
    {"assay": "Biodistribution of radiolabelled DTPA complexes in normal rats, compared with 99mTc-DTPA positive control", "type": "in vivo", "details": "normal Sprague-Dawley rats; time points 15 minutes, 60 minutes, 120 minutes, 24 hours; 111In-labelled complex", "experimental": "as §1, §2", "values": [
      {"substance": "^111In-DTPA-mono(salicylamide) complex [Example 3]", "biodistribution of the complex (comparison with reference complex)": "nearly identical to that of ^99mTc-DTPA"},
      {"substance": "^111In-DTPA-mono(1-naphthylamide) complex [Example 4]", "biodistribution of the complex (comparison with reference complex)": "nearly identical to that of ^99mTc-DTPA"},
      {"substance": "^111In-DTPA-mono(quinoxanylamino)ethylamide complex [Example 8]", "biodistribution of the complex (comparison with reference complex)": "nearly identical to that of the DTPA-coumarin derivative in Example 2"},
      {"substance": "^111In-DTPA-mono(pyrazinylamino)ethylamide complex [Example 7]", "biodistribution of the complex (comparison with reference complex)": "nearly identical to that of ^99mTc-DTPA"},
      {"substance": "^111In-DTPA-bis(salicylamide) complex [Example 6]", "biodistribution of the complex (comparison with reference complex)": "nearly identical to that of ^99mTc-DTPA"}
    ]}
  ]
}
